Test results: patent US8673914B2, “Use of phosphodiesterase inhibitors for treating multidrug resistance” (St. John's University, priority 2011, dated 2014)
Where two headings read alike, the source gives them in different places. Marks after values point to notes of the source that are not given here.

Legend:
[1] = system: HEK293/pcDNA3.1; assay: MTT cytotoxicity/reversal assay (Example 1); type: cell-based; conditions: HEK293/pcDNA3.1, alone
Experimental: (§1) The KB-C2 and KB-3-1 were kindly provided by Dr. Akiyama (Kagoshima University, Japan). HEK293-pcDNA3.1 and wild-type HEK/ABCG2 transfected cells were established by selection with G418 after transfecting HEK293 with either (1) empty pcDNA3.1 vector or (2) pcDNA3.1 vector containing full length of ABCG2 coding arginine (R) at amino acid position 482, and were then cultured in a medium with 2 mg/ml of G418 (ABCG2-482-R2 cells). Similarly, the HEK/MRP1 (ABCC1) and HEK/ABCB1 cells were generated by transfecting the HEK293 cells with either the MRP1 expression vector or the ABCB1 expression vector. All of the cell lines were grown in Dulbecco's modified Eagle's medium (DMEM) supplemented with 10% bovine serum, 100 units/ml penicillin, and […] streptomycin in a humidified incubator containing 5% CO2 at 37° C.
(§2) The MTT assay was used to assess cytotoxicity. The cultured cells were harvested with trypsin and resuspended in a final concentration of 4×10^3 cells/well for KB-3-1; 7.5×10^3 cells/well for KB-C2; and 8×10^3 for all of the other cell lines used in this study. Cells were seeded evenly in 96-well multiplates. […] After 68 h of incubation, 20 μl of the MTT solution (4 mg/ml) was added to each well, and the plate was further incubated for 4 h at 37° C., allowing viable cells to convert the yellow-colored MTT into dark-blue formazan crystals. Subsequently, the medium was discarded, and 100 μl of DMSO was added into each well to dissolve the formazan crystals, generating purple color. The absorbance was determined at 570 nm by an OPSYS Microplate Reader from DYNEX Technologies, Inc. (Chantilly, Va.). […] The degree of the reversal of multidrug resistance (MDR) was calculated by dividing the IC50 of an anticancer drug, e.g., an antineoplastic or chemotherapeutic drug (agent, compound), in a cell type in the absence of a reversal agent by the IC50 of the anticancer drug in the same cell type in the presence of the reversal agent. The IC50 values were calculated from survival curves using the Bliss method.

[2] = system: S1/FLV5000; assay: cells; type: cell-based
Experimental: (§3) The ABCB1-overexpressing drug resistant cell line KB-V1 (generously provided by Dr. Gottesman, NCI, NIH) was established by a stepwise concentration increase of vinblastine in the culture medium of KB-3-1 cells and subsequently culturing these cells in medium with 1 μg/mL of vinblastine. An ABCC1-overexpressing MDR cell line, KB-CV60, was also derived from KB-3-1 cells and was maintained in medium with 1 μg/mL of cepharanthine and 60 ng/mL of vincristine. Both KB-C2 and KB-CV60 cell lines were kindly provided by Dr. Akiyama (Kagoshima University, Japan). HEK293/pcDNA3.1, ABCG2-482-R5, ABCG2-482-G2, and ABCG2-482-T7 cells were established by selection with 2 mg/mL G418 after transfecting HEK293 with either (1) empty pcDNA3.1 vector or (2) pcDNA3.1 vector containing full length ABCG2 coding either (2a) wild-type arginine (R) or mutant (2b) glycine (G) or (2c) threonine (T) at amino acid position 482, respectively. The wild-type ABCG2-overexpressing drug-resistant cell line MCF-7/Flv1000 was cultured in the medium with 1 μM of flavopiridol. […] Another G482 mutant ABCG2-overexpressing drug resistant cell line, S1-M1-80, was maintained in the medium with 80 μM of mitoxantrone. […] All the cell lines were grown as adherent monolayers in flasks with DMEM (Dulbecco's modified Eagle's medium) culture medium (Hyclone Co.) containing 10% bovine serum at 37° C. in a humidified atmosphere of 5% CO2.
(§4) Cells in 96-well plates were preincubated with or without the reversal agents for 1 h and then different concentrations of chemotherapeutic drugs were added into designated wells. After 68 h of incubation, MTT solution (4 mg/mL) was added to each well, and the plate was further incubated for 4 h, allowing viable cells to change the yellow-colored MTT into dark-blue formazan crystals. Subsequently the medium was discarded, and […] of DMSO was added into each well to dissolve the formazan crystals. The absorbance was determined at 570 nm by an OPSYS MR Microplate Reader from DYNEX Technologies, Inc.

[3] = system: ABCG2-482-R2 (ABCG2); assay: MTT cytotoxicity/reversal assay (Example 1)
Experimental: as §1, §2

[4] = system: HEK293/pcDNA3; assay: MTT cytotoxicity/reversal assay (Example 2); type: cell-based; conditions: alone
Experimental: as §3, §4

[5] = system: MCF7/ADVP3000; assay: MTT cytotoxicity/reversal assay (Example 2); type: cell-based; conditions: alone
Experimental: as §3, §4

[6] = system: MCF-7/Flv1000; assay: MTT cytotoxicity/reversal assay (Example 2); type: cell-based; conditions: MCF-7/Flv1000, alone
Experimental: as §3, §4

[7] = system: S1-M1-80; assay: MTT cytotoxicity/reversal assay (Example 2); type: cell-based; conditions: alone
Experimental: as §3, §4

[8] = system: S1; assay: MTT cytotoxicity/reversal assay (Example 2); type: cell-based; conditions: alone
Experimental: as §3, §4

[9] = system: MCF-7; assay: MTT cytotoxicity/reversal assay (Example 2); type: cell-based
Experimental: as §3, §4

[10] = system: HEK/ABCG2-G2; assay: MTT cytotoxicity/reversal assay (Example 2); conditions: HEK/ABCG2-G2, alone
Experimental: as §3, §4

[11] = system: HEK/ABCG2-R5; assay: MTT cytotoxicity/reversal assay (Example 2); conditions: HEK/ABCG2-R5, alone
Experimental: as §3, §4

[12] = system: HEK/ABCG2-T7; assay: MTT cytotoxicity/reversal assay (Example 2); conditions: HEK/ABCG2-T7, alone
Experimental: as §3, §4

[13] = system: HEK/MRP7; assay: MTT cytotoxicity assay (Example 4); type: cell-based; conditions: alone;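 on fold-resistance, docetaxel: drug IC50 in HEK/MRP7 divided by IC50 in parental HEK293-pcDNA3.1 cells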;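 on fold-resistance, vinblastine: drug IC50 in HEK/MRP7 divided by IC50 in parental HEK293-pcDNA3.1 cells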
Experimental: (§5) The MRP7 cDNA was generously provided by Dr. Gary Kruh (University of Illinois, Chicago, Ill.) and inserted into the pcDNA3.1 expression vector. […] Individual colonies were selected in medium containing G418 (1 mg/ml) and cultured for further analysis.
(§6) MTT colorimetric assay was performed to analyze the drug sensitivity as previously described (Shi et al. (2007) Cancer Res. 67:11012-20). HEK293-pcDNA3.1 and HEK/MRP7 cells were seeded into 96-well plates in triplicate at 6000 cells/well.
(§7) After drug incubation of 68 h, 20 μl MTT solution (4 mg/ml) was added into each well. […] The Bliss method was used to calculate the IC50 values according to survival curves.

[14] = MTT cytotoxicity assay (Example 4); type: cell-based; conditions: human, HEK/MRP7, alone;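 on fold-resistance, docetaxel: drug IC50 in HEK/MRP7 divided by IC50 in parental HEK293-pcDNA3.1 cells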;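 on fold-resistance, vinblastine: drug IC50 in HEK/MRP7 divided by IC50 in parental HEK293-pcDNA3.1 cells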
Experimental: as §5, §6, §7

[15] = system: HEK 293-pcDNA-3.1; assay: MTT cytotoxicity assay (Example 4); type: cell-based
Experimental: as §5, §6, §7

[16] = system: KB-V1; assay: MTT cytotoxicity/reversal assay (Example 2); type: cell-based, human; conditions: alone
Experimental: as §3, §4

[17] = system: KB-C2; assay: MTT cytotoxicity/reversal assay (Example 2); type: cell-based, human; conditions: alone
Experimental: as §3, §4

[18] = system: KB-3-1; assay: MTT cytotoxicity/reversal assay (Example 2); type: cell-based, human; conditions: alone
Experimental: as §3, §4

[19] = Homo sapiens, read-out: IC50 of mitoxantrone

Structure (SMILES): CCc1c2c(nc3ccc(O)cc13)-c1cc3c(c(=O)n1C2)COC(=O)[C@]3(O)CC [SN-38, 7-ethyl-10-hydroxy-20(S)-camptothecin]
- fold reversal, SN-38 [1]: (1.00)
- IC50 ([1]; read-out: IC50 of SN-38): 116 ± 15.1 nM
- fold-resistance, SN-38 ([2]; S1/FLV5000, alone): (1.4)
- IC50 ([2]; S1/FLV5000, alone, read-out: IC50 of SN-38): 344 ± 87.4 nM
- fold reversal, SN-38 ([3]; alone): (1.00)
- IC50 ([3]; read-out: IC50 of SN-38, alone): 3650 ± 547 nM
- fold-resistance, SN-38 [4]: (1.0)^c
- IC50 ([4]; read-out: IC50 of SN-38): 5.8 ± 0.2 nM
- fold-resistance, SN-38 [5]: (11.3)
- IC50 ([5]; read-out: IC50 of SN-38): 14300 ± 1620 nM
- fold-resistance, SN-38 [6]: (18.7)
- IC50 ([6]; read-out: IC50 of SN-38): 22800 ± 2000 nM
- fold-resistance, SN-38 [7]: (14.4)
- IC50 ([7]; read-out: IC50 of SN-38): 3550 ± 1400 nM
- fold-resistance, SN-38 [8]: (1.0)^c
- IC50 ([8]; read-out: IC50 of SN-38): 245 ± 17 nM
- fold-resistance, SN-38 ([9]; alone): (1.0)^c
- IC50 ([9]; alone, read-out: IC50 of SN-38): 1220 ± 263 nM
- fold-resistance, SN-38 [10]: (2.3)
- IC50 ([10]; read-out: IC50 of SN-38): 204 ± 136 nM
- fold-resistance, SN-38 [11]: (22.1)
- IC50 ([11]; read-out: IC50 of SN-38): 128 ± 88.2 nM
- fold-resistance, SN-38 [12]: (20.2)
- IC50 ([12]; read-out: IC50 of SN-38): 117 ± 70.4 nM

Structure (SMILES): CC[C@]1(O)C[C@@H]2CN(CCc3c([nH]c4ccccc34)[C@@](C(=O)OC)(c3cc4c(cc3OC)N(C)[C@H]3[C@@](O)(C(=O)OC)[C@H](OC(C)=O)[C@]5(CC)C=CCN6CC[C@]43[C@@H]65)C2)C1 [Vinblastine, vinblastine]
- fold-resistance, vinblastine [13]: (5.03)
- IC50 at 68 h ([14]; read-out: IC50 of vinblastine): 56.3 ± 4.61 nM
- fold-resistance, vinblastine ([15]; HEK 293-pcDNA-3.1, alone): (1.0)
- IC50 ([15]; read-out: IC50 of vinblastine): 11.2 ± 1.23 nM
- fold-resistance, vinblastine [16]: (120.1)
- fold-resistance, vinblastine [17]: (10.3)
- fold-resistance, vinblastine [18]: (1.0)^c

Structure (SMILES): CC(=O)O[C@@]12CO[C@@H]1C[C@H](O)[C@@]1(C)C(=O)[C@H](O)C3=C(C)[C@@H](OC(=O)[C@H](O)[C@@H](NC(=O)OC(C)(C)C)c4ccccc4)C[C@@](O)([C@@H](OC(=O)c4ccccc4)[C@H]21)C3(C)C [Docetaxel, docetaxel]
- fold-resistance, docetaxel [13]: (11.31)
- IC50 at 68 h ([14]; read-out: IC50 of docetaxel): 64.8 ± 5.19 nM
- fold-resistance, docetaxel ([15]; HEK 293-pcDNA-3.1, alone): (1.0)
- IC50 ([15]; read-out: IC50 of docetaxel): 5.73 ± 0.65 nM

Structure (SMILES): O=C1c2c(O)ccc(O)c2C(=O)c2c(NCCNCCO)ccc(NCCNCCO)c21 [Mitoxantrone, mitoxantrone]
- fold-resistance, mitoxantrone [2]: (3.0)
- IC50 ([2]; S1/FLV5000, alone, read-out: IC50 of mitoxantrone): 1120 ± 144 nM
- IC50 [4, 19]: 35.6 ± 3 nM
- fold-resistance, mitoxantrone [4]: (1.0)^c
- IC50 [5, 19]: 279000 ± 6030 nM
- fold-resistance, mitoxantrone [5]: (36.4)
- fold-resistance, mitoxantrone [6]: (66.7)
- IC50 ([6]; read-out: IC50 of mitoxantrone): 511000 ± 16700 nM
- IC50 [7, 19]: 224000 ± 8600 nM
- fold-resistance, mitoxantrone [7]: (559.3)
- fold-resistance, mitoxantrone [8]: (1.0)^c
- IC50 ([8]; read-out: IC50 of mitoxantrone): 380 ± 41.6 nM
- IC50 ([9]; Homo sapiens, MCF7, alone, read-out: IC50 of mitoxantrone): 7660 ± 193 nM
- fold-resistance, mitoxantrone ([9]; alone): (1.0)^c
- fold-resistance, mitoxantrone [10]: (31.0)
- fold-resistance, mitoxantrone [11]: (12.8)
- fold-resistance, mitoxantrone [12]: (23.7)
